Data as given in US20240116845A1, “INDENE COMPOUNDS, PHARMACEUTICAL COMPOSITIONS THEREOF, AND THEIR THERAPEUTIC APPLICATIONS” (NucMito Pharmaceuticals Co., Ltd., priority 2021, published 2024).

Key:
Type in all cases: cell-based
SW480 (colon cancer) = assay: Antiproliferative activity, CCK-8 cell viability; settings: Homo sapiens, 72 h, read-out: Inhibition of Cancerous Cells, SW480; for inhibition at 3.3 µM: compound concentration of 3.3 μM; for inhibition at 10 µM: compound concentration of 10 μM; for inhibition at 30 µM: compound concentration of 30 μM
In short: (§1)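 Cells in DMEM with 10% FBS were treated with compound at 3.3, 10 or 30 μM for 72 h at 37°C. Viability was read by CCK-8 absorbance at 450 nm and expressed relative to DMSO-treated cells. Growth inhibition was binned as ≥50%, 30–50% or <30%.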

HepG2 (liver cancer) = assay: Antiproliferative activity, CCK-8 cell viability; settings: Homo sapiens, 72 h, read-out: Inhibition of Cancerous Cells, HepG2; for inhibition at 3.3 µM: compound concentration of 3.3 μM; for inhibition at 10 µM: compound concentration of 10 μM; for inhibition at 30 µM: compound concentration of 30 μM
In short: as §1

[1] = system: A431 (epidermoid carcinoma); assay: Antiproliferative activity, CCK-8 cell viability; settings: Homo sapiens, A-431, 72 h, read-out: Inhibition of Cancerous Cells, A431; for inhibition at 3.3 µM: compound concentration of 3.3 μM; for inhibition at 10 µM: compound concentration of 10 μM; for inhibition at 30 µM: compound concentration of 30 μM
In short: as §1

[2] = system: B16F10 (malignant melanoma); assay: Antiproliferative activity, CCK-8 cell viability; settings: Mus musculus, B16-F10, 72 h, read-out: Inhibition of Cancerous Cells, B16F10; for inhibition at 3.3 µM: compound concentration of 3.3 μM; for inhibition at 10 µM: compound concentration of 10 μM; for inhibition at 30 µM: compound concentration of 30 μM
In short: as §1

[3] = system: A549 (lung adenocarcinoma); assay: Antiproliferative activity, CCK-8 cell viability; settings: Homo sapiens, 72 h, read-out: Inhibition of Cancerous Cells, A549; for inhibition at 3.3 µM: compound concentration of 3.3 μM; for inhibition at 10 µM: compound concentration of 10 μM; for inhibition at 30 µM: compound concentration of 30 μM
[4] = system: MDA-MB-231 (breast cancer); assay: Antiproliferative activity, CCK-8 cell viability; settings: Homo sapiens, 72 h, read-out: Inhibition of Cancerous Cells, MDA-MB-231; for inhibition at 3.3 µM: compound concentration of 3.3 μM; for inhibition at 10 µM: compound concentration of 10 μM; for inhibition at 30 µM: compound concentration of 30 μM
In short: as §1

HeLa (cervical cancer) = assay: Antiproliferative activity, CCK-8 cell viability; settings: Homo sapiens, 72 h, read-out: Inhibition of Cancerous Cells, HELA; for inhibition at 3.3 µM: compound concentration of 3.3 μM; for inhibition at 10 µM: compound concentration of 10 μM; for inhibition at 30 µM: compound concentration of 30 μM
[5] = system: alpha-smooth muscle actin (α-SMA); assay: Inhibition of TGF-β induced expression of alpha-smooth muscle actin in CFSC cells (western blot); settings: compound at 10 μM, TGF-β (10 ng/mL), 24 hours
In short: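 Rat CCl4-treated hepatic stellate (CFSC) cells in serum-free DMEM were given compound at 10 μM plus TGF-β 10 ng/mL for 24 h at 37 °C. α-SMA measured by western blot with β-actin, bands quantified densitometrically. Percent inhibition is the decrease in band intensity versus TGF-β alone.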

Row | SMILES | inhibition at 3.3 µM (SW480 (colon cancer)) [%] | inhibition at 10 µM (SW480 (colon cancer)) [%] | inhibition at 30 µM (SW480 (colon cancer)) [%] | inhibition at 3.3 µM (HepG2 (liver cancer)) [%] | inhibition at 10 µM (HepG2 (liver cancer)) [%] | inhibition at 30 µM (HepG2 (liver cancer)) [%] | inhibition at 3.3 µM [1] [%] | inhibition at 10 µM [1] [%] | inhibition at 30 µM [1] [%] | inhibition at 3.3 µM [2] [%] | inhibition at 10 µM [2] [%] | inhibition at 30 µM [2] [%] | inhibition at 3.3 µM [3] [%] | inhibition at 10 µM [3] [%] | inhibition at 30 µM [3] [%] | inhibition at 3.3 µM [4] [%] | inhibition at 10 µM [4] [%] | inhibition at 30 µM [4] [%] | inhibition at 3.3 µM (HeLa (cervical cancer)) [%] | inhibition at 10 µM (HeLa (cervical cancer)) [%] | further results
1 | CC1=C(CC(=O)N(C)O)c2cc(F)ccc2/C1=C\c1ccc(Oc2ccccc2)cc1 [Compound B1, 2-[(1Z)-5-Fluoro-2-methyl-1-[(4-phenoxyphenyl)methylidene]-1H-inden-3-yl]-N-hydroxy-N-methylacetamide] | ≥ 50 | ≥ 50 | ≥ 50 | < 30 | 30 to 50 | ≥ 50 | ≥ 50 | ≥ 50 | ≥ 50 | ≥ 50 | ≥ 50 | ≥ 50 | ≥ 50 | ≥ 50 | ≥ 50 | ≥ 50 | ≥ 50 | ≥ 50 | 30 to 50 | ≥ 50 | inhibition at 30 µM (HeLa (cervical cancer)): ≥ 50%; inhibition at 10 µM [5]: 50 to 80%
2 | COc1ccc2c(c1)/C(=C\c1ccc(CN(C)c3ccccc3)cc1)C(C)=C2CC(=O)O [Compound A13, 2-[(1Z)-6-Methoxy-2-methyl-1-[(4-{[methyl(phenyl)amino]methyl}phenyl)-methylidene]-1H-inden-3-yl]acetic acid] | ≥ 50 | 30 to 50 | ≥ 50 | ≥ 50 | ≥ 50 | ≥ 50 | ≥ 50 | ≥ 50 | ≥ 50 | < 30 | 30 to 50 | ≥ 50 | 30 to 50 | 30 to 50 | ≥ 50 | < 30 | 30 to 50 | ≥ 50 | < 30 | 30 to 50 | inhibition at 30 µM (HeLa (cervical cancer)): ≥ 50%; inhibition at 10 µM [5]: ≥ 80%
3 | COc1ccc(Oc2cccc(/C=C3/C(C)=C(CC(=O)O)c4cc(F)ccc43)c2)cc1 [Compound D22, 2-[(1Z)-5-Fluoro-2-methyl-1-({3-[4-methoxyphenoxy]phenyl}methylidene)-1H-inden-3-yl]acetic acid] | < 30 | 30 to 50 | ≥ 50 | < 30 | 30 to 50 | ≥ 50 | < 30 | < 30 | ≥ 50 | < 30 | ≥ 50 | ≥ 50 | 30 to 50 | 30 to 50 | ≥ 50 | ≥ 50 | ≥ 50 | ≥ 50 | 30 to 50 | ≥ 50 | inhibition at 30 µM (HeLa (cervical cancer)): ≥ 50%; inhibition at 10 µM [5]: ≥ 80%
4 | CC1=C(CC(=O)O)c2cc(F)ccc2/C1=C\c1ccc(COc2ccc(F)cc2F)cc1 [Compound A15, 2-[(1Z)-1-({4-[(2,4-Difluorophenoxy)methyl]phenyl}methylidene)-5-fluoro-2-methyl-1H-inden-3-yl]acetic acid] | ≥ 50 | ≥ 50 | ≥ 50 | ≥ 50 | ≥ 50 | ≥ 50 | < 30 | < 30 | ≥ 50 | ≥ 50 | ≥ 50 | ≥ 50 | 30 to 50 | ≥ 50 | ≥ 50 | ≥ 50 | ≥ 50 | ≥ 50 | 30 to 50 | ≥ 50 | inhibition at 30 µM (HeLa (cervical cancer)): ≥ 50%; inhibition at 10 µM [5]: ≥ 80%
5 | CC1=C(CC(=O)O)c2cc(F)ccc2/C1=C/c1ccc(Oc2ccc(F)c(F)c2)cc1 [Compound E1, 2-[(1E)-5-Fluoro-2-methyl-1-({4-[3,4-difluorophenoxy]phenyl}methylidene)-1H-inden-3-yl]acetic acid] | ≥ 50 | ≥ 50 | ≥ 50 | ≥ 50 | ≥ 50 | ≥ 50 | 30 to 50 | ≥ 50 | ≥ 50 | < 30 | 30 to 50 | ≥ 50 | 30 to 50 | ≥ 50 | ≥ 50 | ≥ 50 | ≥ 50 | ≥ 50 | 30 to 50 | ≥ 50 | inhibition at 30 µM (HeLa (cervical cancer)): ≥ 50%; inhibition at 10 µM [5]: ≥ 80%
6 | COc1cccc2c1C(CC(=O)O)=C(C)/C2=C/c1ccc(Oc2ccccc2)cc1 [Compound D28, 2-[(1Z)-4-Methoxy-1-(4-(phenoxy)benzylidene)-2-methyl-1H-inden-3-yl]-acetic acid] | ≥ 50 | ≥ 50 | ≥ 50 | ≥ 50 | ≥ 50 | ≥ 50 | ≥ 50 | ≥ 50 | ≥ 50 | 30 to 50 | ≥ 50 | ≥ 50 | 30 to 50 | 30 to 50 | ≥ 50 | 30 to 50 | 30 to 50 | ≥ 50 | < 30 | < 30 | inhibition at 30 µM (HeLa (cervical cancer)): < 30%; inhibition at 10 µM [5]: 50 to 80%
7 | CC1=C(CC(=O)O)c2cc(F)ccc2/C1=C\c1ccc(Oc2ccc(F)cc2)c(C)c1 [Compound D13, 2-[(1Z)-1-{[3-Methyl-4-(4-fluorophenoxy)phenyl]methylidene}-5-fluoro-2-methyl-1H-inden-3-yl]acetic acid] | 30 to 50 | ≥ 50 | ≥ 50 | 30 to 50 | 30 to 50 | ≥ 50 | 30 to 50 | ≥ 50 | ≥ 50 | ≥ 50 | ≥ 50 | ≥ 50 | 30 to 50 | ≥ 50 | ≥ 50 | < 30 | ≥ 50 | ≥ 50 | < 30 | 30 to 50 | inhibition at 30 µM (HeLa (cervical cancer)): ≥ 50%; inhibition at 10 µM [5]: < 30%
8 | CC1=C(CC(=O)N(C)O)c2cc(F)ccc2/C1=C\c1cccc(Oc2ccccc2)c1 [Compound B5, (Z)-2-(5-Fluoro-2-methyl-1-(3-phenoxybenzylidene)-1H-inden-3-yl)-N-hydroxy-N-methylacetamide] | 30 to 50 | ≥ 50 | ≥ 50 | ≥ 50 | ≥ 50 | ≥ 50 | ≥ 50 | ≥ 50 | ≥ 50 | 30 to 50 | ≥ 50 | ≥ 50 | 30 to 50 | ≥ 50 | ≥ 50 | < 30 | ≥ 50 | ≥ 50 | < 30 | ≥ 50 | inhibition at 30 µM (HeLa (cervical cancer)): ≥ 50%; inhibition at 10 µM [5]: 50 to 80%
